According to patent US20260215432A1, “ANTIMICROBIAL CONJUGATED OLIGOELECTROLYTES AND METHODS THEREOF” (National University of Singapore, priority 2023, published 2026):
In brackets after ≈: the same amount, converted by molar mass. Several values for one entry are separate records, joined by “and”; a condition that tells them apart may be missing. Equal values may be shown once. Read-outs that look alike come from different tables or passages of the source.

How the values were obtained:
[1] = tested on: M. abscesses (ATCC 19977); test: MIC against mycobacterium in Middlebrook 7H9 broth; type: cell-based, M. abscessus; settings: for MIC: Mycobacteroides abscessus, ATCC19977
Description: We also examined non-tuberculous mycobacteria (NTM). These are opportunistic pathogens that are rising in clinical significance due to their increasing prevalence and treatment difficulty. The membrane of Mycobacterium is inherently a greater antibiotic permeability barrier due to its high lipid content relative to other pathogens and long-tailed mycolic acids that contributed to its high lipophilic character. The antimicrobial activity of the TPP analogues were also evaluated against Mycobacterium in Middlebrook 7H9 broth.

[2] = tested on: A549 (lung epithelial cells); test: Cytotoxicity against mammalian cell line; type: cell-based
Description: The cytotoxicity of the TPP COEs was also tested against a mammalian cell line (A549).

[3] = tested on: E. coli. K12 (ATCC 10798); test: MIC, broth microdilution in CA-MHB; type: cell-based; settings: for MIC EC: CA-MHB
Description: (§1) Antimicrobial activity was screened against a range of pathogens made up of clinically relevant ESKAPE pathogens by determination of the minimum inhibitory concentration (MIC) in cation-adjusted Mueller-Hinton broth (CA-MHB).
(§2) Minimum inhibitory concentrations of COEs were determined through a broth microdilution method in accordance with the Clinical and Laboratory Standards Institute (CLSI) guidelines M07-A10. A single bacterial colony was isolated from an overnight culture and grown to mid-log phase (OD600~0.8). Compounds were prepared as a stock solution in DMSO and diluted in a sterile flat-bottom 96-well plate in CA-MHB. Subsequent concentrations were prepared by two-fold dilution of the initial solution. An equivalent volume of bacteria was added to the compound to a final concentration of 5×10^5 cfu/mL. Plates were incubated at 37° C. for 16-18 hours, and read at OD600 using a microplate reader (TECAN Spark®). […] MIC values were determined for each compound in triplicate.

[4] = tested on: Methicillin-resistant S. aureus (ATCC BAA1717); test: MIC, broth microdilution in CA-MHB; type: cell-based; settings: for MIC MRSA: CA-MHB
Description: as §1, §2

A. baumanii (ATCC 17978) = test: MIC, broth microdilution in CA-MHB; type: cell-based; settings: for MIC AB: CA-MHB
Description: as §1, §2

[5] = tested on: K. pneumoniae (carbapenem-resistant Enterobacterales) (ATCC BAA1705); test: MIC, broth microdilution in CA-MHB; type: cell-based; settings: CA-MHB
Description: as §1, §2

E. facium (ATCC 19434) = test: MIC, broth microdilution in CA-MHB; type: cell-based; settings: for MIC FAC: CA-MHB
Description: as §1, §2

S. aureus (ATCC 29213) = test: MIC, broth microdilution in CA-MHB; type: cell-based
Description: as §1, §2

[6] = tested on: P. aeruginosa (ATCC47085); test: MIC, broth microdilution in CA-MHB; type: cell-based; settings: CA-MHB
Description: as §1, §2

[7] = tested on: E. faecalis OG1RF (ATCC 47077); test: MIC, broth microdilution in CA-MHB; type: cell-based; settings: CA-MHB
Description: as §1, §2

[8] = phosphate-buffered saline; below 10 μg mL^−1 estimated by turbidimetric screening
Description: The solubility of all the TPP derivatives was determined in phosphate-buffered saline (PBS) (Table S3).

SA = test: MIC in physiological-mimicking environments (MHB); type: cell-based, S. aureus
Description: (§3) The complexities of the physiological environment often influence drug activity, particularly when cations in solution are implicated in their oligomerization-dependent mechanisms of action, such as for daptomycin. Binding of free drug to plasma proteins effectively reduces the available free concentration of the drug capable of killing bacteria, resulting in lower observable activity. We tested MIC values of DM4P and DM6P in the presence of human serum albumin (40 g L^−1) and high salt concentrations (Table 4). Under these conditions, the antimicrobial activity was minimally affected by these environmental factors, with MICs remaining within a 2-fold level.

PA = test: MIC in physiological-mimicking environments (MHB); type: cell-based, P. aeruginosa
Description: as §3

MRSA = test: Resistance development by serial passaging at 0.5× MIC; type: cell-based, S. aureus
Description: (§4) The non-specific action of membrane-active antibiotics lends itself to minimal development of resistance development due to the large metabolic burden involved, unlike traditional antibiotics with a well-defined enzymatic target. Based on this premise, we passaged bacteria incubated with DM6P, or ciprofloxacin (control), at 0.5× MIC to investigate the adaptation of bacteria towards external antibiotic stress. As a control, treatment of MRSA with ciprofloxacin gave rise to antibiotic-resistant mutants within 4 passages, see FIG. 4a. […] Combined with its broad spectrum of activity, this feature opens opportunities for the use of COE antimicrobial agents to address polymicrobial infections with a lower rate of emerging antibiotic resistance.

P. aeruginosa = test: as above; type: cell-based
Description: as §4

Row | Molecule | IC50 [2] | MIC EC [3] | MIC MRSA [4] | MIC ([4]; towards MRSA, Table 3) | MIC AB (A. baumanii (ATCC 17978)) | MIC KP [5] | MIC FAC (E. facium (ATCC 19434)) | MIC SA (S. aureus (ATCC 29213)) | MIC PA [6] | MIC FAE [7] | solubility in PBS [8] | also measured
1 | NCC[C@H](O)C(=O)N[C@@H]1C[C@H](N)[C@@H](O[C@H]2O[C@H](CN)[C@@H](O)[C@H](O)[C@H]2O)[C@H](O)[C@H]1O[C@H]1O[C@H](CO)[C@@H](O)[C@H](N)[C@H]1O [Amikacin, reference compound] |  |  |  |  |  |  |  |  |  |  |  | MIC [1]: 8 µg/mL (≈ 13.7 µM)
2 | C[N+](C)(C)CCCCOc1ccc(/C=C/c2ccc(OCCCC[N+](C)(C)C)cc2)cc1.[I-].[I-] [Compound D4, reference compound] | 548 µg/mL | > 64 µg/mL and 128 µg/mL | >64 µg/mL | > 64 µg/mL | >64 µg/mL | >64 µg/mL | 64 µg/mL | >64 µg/mL | >64 µg/mL | 128 µg/mL |  | 
3 | C(=C\c1ccc(OCCCC[P+](c2ccccc2)(c2ccccc2)c2ccccc2)cc1)/c1ccc(OCCCC[P+](c2ccccc2)(c2ccccc2)c2ccccc2)cc1.[I-].[I-] [Compound D4P] | 8 µg/mL | 4 µg/mL and 8 µg/mL | 2 µg/mL | 2 µg/mL | 32 µg/mL | 32 µg/mL | 1 µg/mL | 4 µg/mL | 16 µg/mL | 1 µg/mL | 76 µg/mL | MIC M. abscesses [1]: 32 µg/mL
4 | C[N+](C)(C)CCCCCCOc1ccc(/C=C/c2ccc(OCCCCCC[N+](C)(C)C)cc2)cc1.[I-].[I-] [Compound D6, reference compound] | 39 µg/mL | 16 µg/mL | 32 µg/mL | 32 µg/mL | >64 µg/mL | >64 µg/mL | 8 µg/mL | 32 µg/mL | >64 µg/mL | 32 µg/mL |  | 
5 | C(=C\c1ccc(OCCCCCC[P+](c2ccccc2)(c2ccccc2)c2ccccc2)cc1)/c1ccc(OCCCCCC[P+](c2ccccc2)(c2ccccc2)c2ccccc2)cc1.[I-].[I-] [Compound D6P] | 13 µg/mL | 2 µg/mL | 2 µg/mL | 2 µg/mL | >16 µg/mL | >16 µg/mL | 1 µg/mL | 2 µg/mL | 8 µg/mL | 1 µg/mL | 18 µg/mL | MIC M. abscesses [1]: 16 µg/mL
6 | C[N+](C)(C)CCCCCCCCOc1ccc(/C=C/c2ccc(OCCCCCCCC[N+](C)(C)C)cc2)cc1.[I-].[I-] [Compound D8, reference compound] | 11 µg/mL | 4 µg/mL | 8 µg/mL | 8 µg/mL | 32 µg/mL | 64 µg/mL | 1 µg/mL | 8 µg/mL | >64 µg/mL | 4 µg/mL |  | 
7 | C(=C\c1ccc(OCCCCCCCC[P+](c2ccccc2)(c2ccccc2)c2ccccc2)cc1)/c1ccc(OCCCCCCCC[P+](c2ccccc2)(c2ccccc2)c2ccccc2)cc1.[I-].[I-] [Compound D8P] |  |  |  |  |  |  |  |  |  |  | 4 µg/mL | 
8 | COc1cc(/C=C/c2ccc(OCCCC[P+](c3ccccc3)(c3ccccc3)c3ccccc3)c(OC)c2)ccc1OCCCC[P+](c1ccccc1)(c1ccccc1)c1ccccc1.[I-].[I-] [DM4P] | 9 µg/mL | 4 µg/mL | 2 µg/mL | 2 µg/mL | 4 µg/mL | 8 µg/mL | 1 µg/mL | 2 µg/mL | 8 µg/mL | 1 µg/mL | 138 µg/mL | MIC CaCl2 (SA; CaCl2 1 mM): 2 µg/mL; MIC MgCl2 (SA; MgCl2 1.25mM): 2 µg/mL; MIC NaCl (SA; NaCl 300 mM): 4 µg/mL; MIC HSA (SA; human serum albumin 40 g L^−1): 2 µg/mL; MIC — (SA; no additive): 2 µg/mL; MIC CaCl2 (PA; CaCl2 1 mM): 8 µg/mL; MIC MgCl2 (PA; MgCl2 1.25mM): 8 µg/mL; MIC NaCl (PA; NaCl 300 mM): 4 µg/mL; MIC HSA (PA; human serum albumin 40 g L^−1): 8 µg/mL; MIC — (PA; no additive): 8 µg/mL; MIC M. abscesses [1]: 8 µg/mL
9 | COc1cc(/C=C/c2ccc(OCCCCCC[P+](CCCO)(CCCO)CCCO)c(OC)c2)ccc1OCCCCCC[P+](CCCO)(CCCO)CCCO.[I-].[I-] [DM6THPP] | >1024 µg/mL | >64 µg/mL | >64 µg/mL | > 64 µg/mL | >64 µg/mL | >64 µg/mL | >64 µg/mL | >64 µg/mL | >64 µg/mL | >64 µg/mL |  | 
10 | COc1cc(/C=C/c2ccc(OCCCCCCCC[P+](c3ccccc3)(c3ccccc3)c3ccccc3)c(OC)c2)ccc1OCCCCCCCC[P+](c1ccccc1)(c1ccccc1)c1ccccc1.[I-].[I-] [DM8P] | 10 µg/mL | >4 µg/mL | 4 µg/mL | 4 µg/mL | >4 µg/mL | >4 µg/mL | 1 µg/mL | >4 µg/mL | >4 µg/mL | 1 µg/mL | 4 µg/mL | MIC M. abscesses [1]: 64 µg/mL
11 | CC(=O)NC[C@H]1CN(c2ccc(N3CCOCC3)c(F)c2)C(=O)O1 [Linezolid, reference compound] |  |  |  |  |  |  |  |  |  |  |  | MIC [1]: 8 µg/mL (≈ 23.7 µM)
12 | CN[C@H](CC(C)C)C(=O)N[C@H]1C(=O)N[C@@H](CC(N)=O)C(=O)N[C@H]2C(=O)N[C@H]3C(=O)N[C@H](C(=O)N[C@H](C(=O)O)c4cc(O)cc(O)c4-c4cc3ccc4O)[C@H](O)c3ccc(c(Cl)c3)Oc3cc2cc(c3O[C@@H]2O[C@H](CO)[C@@H](O)[C@H](O)[C@H]2O[C@H]2C[C@](C)(N)[C@H](O)[C@H](C)O2)Oc2ccc(cc2Cl)[C@H]1O [Vancomycin, reference compound] |  |  |  |  |  | >128 µg/mL |  |  |  |  |  | MIC ([3]; Escherichia coli, ATCC10798, read-out: MIC EC): > 128 µg/mL; MIC ([4]; Staphylococcus aureus, ATCC BAA-1717 / MRSA, read-out: MIC MRSA): 1 µg/mL (≈ 0.69 µM); MIC (A. baumanii (ATCC 17978); Acinetobacter baumannii, ATCC17978, read-out: MIC AB): > 128 µg/mL; MIC (E. facium (ATCC 19434); read-out: MIC FAC): 1 µg/mL (≈ 0.69 µM)
13 | O=C(O)c1cn(C2CC2)c2cc(N3CCNCC3)c(F)cc2c1=O [ciprofloxacin, reference compound] |  |  |  |  |  |  |  |  |  |  |  | passages until antibiotic-resistant mutants arise (MRSA): ≤ 4 passages; resistance development (P. aeruginosa): this development occurred at a slower rate
14 | Polymyxin B [reference compound] |  | 1 µg/mL |  |  | 4 µg/mL | 2 µg/mL |  |  | 2 µg/mL |  |  | 
